Results published in ChEMBL document CHEMBL6078654, “Modular Assembly of Heterotrifunctional Molecules Enabled by Iodosulfonylation of Allenes and Subsequent Amination” (J Med Chem, 2024).
Calls of active or inactive are those of the source. The rule behind the calls is not given here.

How the values were obtained:
HCT-116 [1] = test: Cytotoxicity against human HCT-116 cells assessed as cell viability upto 80 uM incubated for 24 hrs by CCK-8 assay; type: toxicity, cell-based; settings: hct-116, 24 h
HCT-116 [2] = test: Cytotoxicity against human HCT-116 cells assessed as cell viability at 320 uM incubated for 24 hrs by CCK-8 assay; type: toxicity, cell-based; settings: hct-116, 24 h
[3] = Photophysical property of the compound assessed as maximum fluorescent emission peak at 0.03125 to 4 uM by fluorescence spectrophotometric analysis; type: physicochemical; settings: dose 0.03125-4 µM
[4] = Drug localization in human HCT-116 cells Mitochondria assessed as increase fluorescence at 30 uM incubated for 30 mins by mito-tracker probe based inverted fluorescent microscopic analysis; type: ADME; settings: hct-116, 0.5 h
[5] = Drug localization in human HCT-116 cells Endoplasmic reticulum assessed as increase fluorescence at 30 uM incubated for 30 mins by ER-tracker red probe based inverted fluorescent microscopic analysis; type: ADME, subcellular; settings: hct-116, 0.5 h
[6] = Drug localization in human HCT-116 cells Lysosome assessed as increase fluorescence at 30 uM incubated for 30 mins by lyso-tracker probe based inverted fluorescent microscopic analysis; type: ADME, subcellular; settings: hct-116, 0.5 h
HCT-116 [7] = test: Antiproliferative activity against human HCT-116 cells assessed as inhibition of cell proliferation incubated for 24 hrs by CCK-8 assay; type: functional, cell-based; settings: HCT-116, 24 h
[8] = Antiproliferative activity against dog MDCK cells assessed as inhibition of cell proliferation incubated for 24 hrs by CCK-8 assay; type: toxicity, cell-based, Canis lupus familiaris
MDCK = test: Effect on TGR5 protein level in dog MDCK cells by Western blot analysis; type: functional, cell-based; settings: Canis lupus familiaris
HepG2 [9] = test: Effect on TGR5 protein level in human HepG2 cells by Western blot analysis; type: functional, cell-based
HepG2 [10] = test: Antiproliferative activity against human HepG2 cells assessed as inhibition of cell proliferation incubated for 24 hrs by CCK-8 assay; type: functional, cell-based; settings: HepG2, 24 h
HCT-116 [11] = test: Effect on TGR5 protein level in human HCT-116 cells by Western blot analysis; type: functional, cell-based

C=C(C(NCCNC(=O)C(C)c1ccc(CC(C)C)cc1)c1ccc(C(=O)OC)cc1)S(=O)(=O)c1cccc2c(N(C)C)cccc12 (configuration not stated)
Activity (HCT-116 [1]): Toxic

C=C(C(NCCOC(=O)C(C)c1ccc(CC(C)C)cc1)c1ccc(C(=O)OC)cc1)S(=O)(=O)c1cccc2c(N(C)C)cccc12 (configuration not stated)
Activity (HCT-116 [2]): Non-toxic | Activity [3]: Active | Drug uptake [4]: Not_active | Drug uptake [5]: Active | Drug uptake [6]: Not_active

C=C(C(NCCNC(=O)CC[C@@H](C)[C@H]1CC[C@H]2[C@@H]3CC[C@@H]4C[C@H](O)CC[C@]4(C)[C@H]3CC[C@]12C)c1ccc(C(=O)OCCOCCOCCOC(=O)O[C@H]2c3cc4c(cc3[C@@H](c3cc(OC)c(OC)c(OC)c3)[C@H]3C(=O)OC[C@@H]32)OCO4)cc1)S(=O)(=O)c1cccc2c(N(C)C)cccc12 (some centres not stated)
IC50 (HCT-116 [7]): 5.5 µM | IC50 at 24 h [8]: 14.6 µM | Activity (MDCK): Active | Activity (HepG2 [9]): Active | IC50 (HepG2 [10]): 2100 nM | Activity (HCT-116 [11]): Active
